Data: patent publication US5068325A, “4,5,7,8-tetrahydro-6H-thiazolo[5,4-d]azepines, their preparation and their use as pharmaceutical compositions” (priority 1988, dated 1991)

Key:
alpha-2 receptors = biological target: T1, alpha-2 receptors (Rattus norvegicus, UniProt P22909); test: affinity for alpha-2 receptors by displacement experiments with [3H]-clonidine (rat cortex membranes); assay type: binding; details: read-out: α2-IC50
T1 sequence (P22909 1-465): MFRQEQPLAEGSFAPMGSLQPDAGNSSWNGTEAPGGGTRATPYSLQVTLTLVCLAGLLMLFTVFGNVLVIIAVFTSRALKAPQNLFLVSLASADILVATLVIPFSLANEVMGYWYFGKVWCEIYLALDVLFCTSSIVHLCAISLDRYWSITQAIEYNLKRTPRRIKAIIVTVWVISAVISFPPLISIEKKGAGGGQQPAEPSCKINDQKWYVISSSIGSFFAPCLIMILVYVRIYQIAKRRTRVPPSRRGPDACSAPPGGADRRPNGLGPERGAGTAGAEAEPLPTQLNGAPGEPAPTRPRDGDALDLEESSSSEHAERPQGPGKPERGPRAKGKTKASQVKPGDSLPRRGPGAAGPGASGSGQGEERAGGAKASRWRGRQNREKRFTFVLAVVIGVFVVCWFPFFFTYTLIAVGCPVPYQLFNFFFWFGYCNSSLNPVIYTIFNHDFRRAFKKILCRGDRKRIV
Experimental: Determination of the affinity for alpha-2 receptors by displacement experiments with [^3 H] clonidine (Modified Method of B. Jarrott, W. J. Louis and R. J. Summers, Biochem. Pharmacol. 27, 141 (1979))
A male rat (Chbb:Thom strain weighing about 200 g) was killed by a blow to the back of the neck. The brain was removed and the cortex dissected out, weighed and homogenised in 25 volumes of tris buffer (50 mM tris- HCl, pH 7.50) for 30 seconds in an Ultra-Turrax at maximum speed, followed by 10° Cycles in a Potter- Elvehjem at 1400 rpm. The homogenised material was combined with tris buffer to obtain a homogenate dilution of 1:50 (based on the weight of the cortex).
1 ml aliquots of the membrane preparation were incubated for three hours at ambient temperature with 1 ml of a solution of 1 nM of [^3 H]-clonidine (2.2 TBq/mmol, Messrs. DuPont NEN) and with increasing concentrations of the test substance (10^-11 to 10^-4 M). Incubation was ended by the addition of 5 ml of ice-cold tris buffer and filtration through Whatman GF/B filters. The filters were washed twice, each time with 5 ml of ice cold buffer. The radioactivity of the filters was determined by liquid scintillation measurement in Instagel(R) (Messrs. Canberra Packard). The non-specific binding was determined in the presence of 10^-5 M of oxymetazoline (Sigma Chemical Co.).
Displacement curves were obtained from the data using the TOPFIT programming package (G. Heinzel in "Pharmacokinetics During Drug Development: Data Analysis and Evaluation Techniques", G. Bozler and J. M. van Rossum Eds., G. Fischer Verlag, Stuttgart 1982, 207).

MPTP monkeys = test: post-synaptic dopaminergic activity in MPTP monkeys; assay type: in vivo, rhesus monkey; details: for minimal effective dose: Primates, in Macaca mulatta, im, rhesus monkeys, i.m., read-out: minimum dose (MED) required to alleviate the Parkinson's symptoms
Description: 6. Determining the post-synaptic dopaminergic activity in MPTP monkeys (Modified Method of R. S. Burns et al., Proc. Natl. Acad. Sci. 80. 4546 (1983))
The neurotoxin 1-methyl-4-phenyl-1,2,3,6- tetrahydro-pyridine (MPTP) produces in humans and monkeys an irreversible syndrome which in its clinical, pathological, biochemical and pharmacological appearance is very similar to idiopathic Parkinson's disease (Markey et al., Nature 311, 464 (1984)). The reason for this similarity is that MPTP selectively destroys those dopaminergic nerve cells in the substantia nigra of the brain which are also lost by degenerative processes in Parkinson's disease. There is even some discussion that MPTP or an MPTP-like substance might be formed in the body and trigger Parkinson's disease (S. H. Snyder, Nature 311, 514 (1984)). Possibly because of the specific MPTP metabolism, the clinical formation of the MPTP-induced Parkinson syndrome has hitherto been detected only in humans and monkeys. The MPTP model produced in the rhesus monkey is therefore exceptionally suitable for testing the activity of post-synaptically acting dopamine agonists. For this purpose, rhesus monkeys were given MPTP in overall doses of up to about 6 mg/kg of body weight, until the following symptoms appeared: The animals were akinetic and unable to take water and food.
It is clear that with the compounds according to the invention there is no sedative effect or ataxia at a dosage which is several times the MED, which can be put down to the absence of a corresponding activity mediated by the α2- receptors.

dopamine D2-receptors = dopamine D2-receptors (Rattus norvegicus, UniProt P61169); test: affinity for dopamine D2-receptors by displacement experiments with [3H]-spiperone (rat striatum membranes); assay type: binding; details: for Ki: [3H]-spiperone, high-affinity form of the dopamine receptor; for α2-IC50 / D2-Ki: relative affinity for dopamine-D2 receptors compared with α2-adrenoceptors, the higher, the higher the D2/α2 selectivity
Chain of dopamine D2-receptors (P61169 whole entry): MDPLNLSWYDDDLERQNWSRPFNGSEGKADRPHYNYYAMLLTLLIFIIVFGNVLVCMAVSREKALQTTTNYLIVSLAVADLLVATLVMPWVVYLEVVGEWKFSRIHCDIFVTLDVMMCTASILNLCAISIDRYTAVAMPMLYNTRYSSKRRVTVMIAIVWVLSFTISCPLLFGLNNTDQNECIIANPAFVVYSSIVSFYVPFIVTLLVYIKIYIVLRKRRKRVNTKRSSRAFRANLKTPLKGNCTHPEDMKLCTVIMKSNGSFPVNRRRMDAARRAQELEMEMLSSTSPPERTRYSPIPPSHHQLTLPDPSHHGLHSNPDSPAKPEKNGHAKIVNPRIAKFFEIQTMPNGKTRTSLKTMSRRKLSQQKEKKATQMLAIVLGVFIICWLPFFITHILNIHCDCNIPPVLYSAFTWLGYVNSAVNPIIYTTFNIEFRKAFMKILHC

[1] = tested on: hypersensitive dopamine receptor; test: motility triggering in the mouse treated 24 hours earlier with reserpine; assay type: in vivo
Experimental: This test determines predominantly agonistic effects on the hypersensitive dopamine receptor.
Male mice are treated 24 hours before the experiment with 5 mg/kg i.p. reserpine. The animals are kept at 25°-30° C. and treated three times with 2 ml of a 5% glucose solution in tyrode s.c. (the first time when the reserpine is given, the second time in the evening of the pre-treatment day and the third time on the morning of the test day).
[…] (The injection volume is usually 0.1 ml/10 g of body weight). 30 minutes later the groups of animals are placed in the observation cages (measuring 42 x 24 x 8 cm) and fitted with an infrared lightbeam in order to measure their activity. The value measured is the frequency with which a group of 6 mice pass through the infra-red beam within 5 minutes ("running pulses/5 minutes"; mean at n=3; mean±s.e.m. at n=6).
3 to 6 groups are tested for each substance.

Structure (SMILES)	IC50 (alpha-2 receptors) [nM]	Ki (dopamine D2-receptors) [nM]	α2-IC50 / D2-Ki (dopamine D2-receptors)	further results
C=CCN1CCc2nc(N)sc2CC1 [Compound A, reference compound]	24	5	4.8	Duration of activity (MPTP monkeys; 0.03 mg/kg i.m. (MED)): 0.5 to 1 h; effect on MPTP-induced symptoms (MPTP monkeys; MPTP-treated rhesus monkeys): temporary cessation of this phenomenon; minimal effective dose (MPTP monkeys): 0.03 mg/kg; running pulses every 5 minutes ([1]; 3 mg/kg s.c.): 50 running pulses every 5 minutes; ED (50 running pulses/5 min) ([1]; Mus musculus, sc, reserpine-treated mice, s.c., read-out: DLi50 (dosage resulting in 50 running pulses every 5 minutes)): 3 mg/kg
Nc1nc2c(s1)CCN(Cc1ccc(Cl)cc1)CC2 [Compound B, reference compound]	410	13	31.5	Duration of activity (MPTP monkeys; 0.15 mg/kg i.m.): 5 h; running pulses every 5 minutes ([1]; 5 mg/kg s.c.): 22 running pulses every 5 minutes; effectiveness in motility triggering compared with compound A ([1]; reserpine-treated mice, s.c.): less effective than compound A
Nc1nc2c(s1)CCN(CC=Cc1cccc3ccccc13)CC2 [Example 4t, 2-Amino-6-(3-(1-naphthyl)allyl)-4,5,7,8-tetrahydro-6H-thiazolo[5,4-d]azepine]	460	3.1	148	–
Nc1nc2c(s1)CCN(CC=Cc1cccc(OCc3ccccc3)c1)CC2 [Example 4y, 2-Amino-6-(3-(3-benzyloxy-phenyl)allyl)-4,5,7,8-tetrahydro-6H-thiazolo[5,4-d]azepine]	300	0.73	410	–
N#Cc1ccc(C=CCN2CCc3nc(N)sc3CC2)cc1 [Example 14b, 2-Amino-6-(3-(4-cyano-phenyl)allyl)-4,5,7,8-tetrahydro-6H-thiazolo[5,4-d]azepine]	500	2.6	192	Duration of activity (MPTP monkeys; 0.05 mg/kg i.m. (MED)): 2.0 to 5 h; Side effects (MPTP monkeys; 0.05 mg/kg i.m. (MED)): none; Duration of activity (MPTP monkeys; 0.50 mg/kg i.m.): > 5 h; minimal effective dose (MPTP monkeys): 0.05 mg/kg

Second part, led by results:

IC50 (alpha-2 receptors) [nM]	Ki (dopamine D2-receptors) [nM]	α2-IC50 / D2-Ki (dopamine D2-receptors)	Structure (SMILES)	further results
3100	0.92	3370	Nc1nc2c(s1)CCN(CC=Cc1nccc3ccccc13)CC2 [Example 7a, 2-Amino-6-(3-(1-isoquinolinyl)allyl)-4,5,7,8-tetrahydro-6H-thiazolo[5,4-d]azepine]	–
3000	9.9	303	Nc1nc2c(s1)CCN(CC=Cc1ccccc1N1CCCCC1)CC2 [Example 11p, 2-Amino-6-(3-(2-(1-piperidino)phenyl)-2-propen-1-yl)-4,5,7,8-tetrahydro-6H-thiazolo[5,4-d]azepine]	–
900	1.7	529	Nc1nc2c(s1)CCN(CC=Cc1cc3ccccc3cn1)CC2 [Example 24a, 2-Amino-6-(3-(3-isoquinolinyl)allyl)-4,5,7,8-tetrahydro-6H-thiazolo[5,4-d]azepine]	–
